Results taken from the NIST ThermoML archive (doi:10.1021/je060416d).

Settings: Liquid, Vibrating wire viscometry

C1CCCC1 [cyclopentane]
viscosity [mPa·s]
Settings | 273.15 K | 293.15 K | 298.15 K | 313.15 K | 333.15 K | 353.15 K
100 kPa | 0.5628 | 0.4413 | 0.4167 | – | – | –
10000 kPa | 0.6148 | 0.4827 | 0.4583 | 0.392 | 0.3247 | –
15000 kPa | – | – | – | – | – | 0.2868
30000 kPa | 0.7203 | 0.5708 | 0.5409 | 0.4646 | 0.3882 | 0.3291
40000 kPa | 0.7767 | 0.6167 | 0.5846 | – | – | –
45000 kPa | – | – | – | 0.5222 | 0.4364 | 0.3727
